Our source for the IC50 values is US20240317744A1, “Bicyclic Ureas As Kinase Inhibitors” (Incyte Corporation, priority 2023, published 2024).

For assay [1], the target named is T1, pseudo-kinase domain (JH2, amino-acids 536-812) of human V617F mutant JAK2 (Homo sapiens, UniProt O60674, F794H/V617F/W659A/W777A).
T1 construct: pseudo-kinase domain (JH2, amino-acids 536-812 with 3 surface mutations W659A, W777A, F794H); His (C); purchased BPS Bioscience 79498; host or cells: baculovirus expression system
Kind of assay: JAK2 LanthaScreen JH2-V617F Binding Assay. The conditions noted are these: JAK2 JH2-V617F 0.26 nM, 50 nM tracer, 1 hour at 25° C.; read-out: JH2 BIND V617F. The procedure: Example C. JAK2 LanthaScreen JH2-V617F Binding Assay
JAK2 JH2-V617F binding assay utilizes pseudo-kinase domain (JH2, amino-acids 536-812 with 3 surface mutations W659A, W777A, F794H) of human V617F mutant JAK2 expressed as C-terminal His-Avi-tagged, biotinylated protein in a baculovirus expression system (BPS Bioscience, Catalog #79498). The assay was conducted in black 384-well polystyrene plates in a final reaction volume of 20 μL. JAK2 JH2-V617F (0.26 nM) was incubated with compounds (100 nL serially diluted in DMSO) in the presence of 50 nM Fluorescent JAK2-JH2 Tracer (MedChem Express Catalog #HY-102055) and 0.25 nM Streptavidin-Tb cryptate (Cisbio Part #610SATLB) in assay buffer (50 mM Tris, pH=7.5, 10 mM MgCl2, 0.01% Brij-35, 0.1% BSA, 1 mM EGTA, 5% Glycerol and 5 mM DTT). Non-specific binding was accessed in the presence of 2 mM ATP. After incubation for 1 hour at 25° C., LanthaScreen signals were read on a PHERAstar FS plate reader (BMG LABTECH). Data was analyzed with IDBS XLfit and GraphPad Prism 5.0 software using a four parameter dose response curve to determine IC50 for each compound.
In general terms: TR-FRET usually uses a lanthanide donor and a delayed reading to cut background.

The target in assay [2] is catalytic domain (JH1, amino acids 808-1132) of human JAK2 (Homo sapiens, UniProt O60674). Kind of assay: JAK2 HTRF Enzyme Activity Assay. The conditions noted are these: ATP 30 µM, 60 minutes at 25° C.; read-out: V617F ENZ 30 UM. The format is biochemical.

SMILES strings stand for the structures.

Sequence of catalytic domain (JH1, amino acids 808-1132) of human JAK2 (O60674 808-1132 limits assumed): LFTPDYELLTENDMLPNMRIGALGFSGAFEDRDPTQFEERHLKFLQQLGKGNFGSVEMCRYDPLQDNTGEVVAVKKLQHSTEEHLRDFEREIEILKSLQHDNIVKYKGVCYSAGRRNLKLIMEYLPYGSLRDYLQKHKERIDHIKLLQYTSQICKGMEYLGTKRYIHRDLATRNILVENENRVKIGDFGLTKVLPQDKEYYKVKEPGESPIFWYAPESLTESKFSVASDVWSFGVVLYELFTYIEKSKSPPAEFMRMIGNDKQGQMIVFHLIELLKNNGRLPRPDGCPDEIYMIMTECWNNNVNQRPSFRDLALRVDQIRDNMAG
T1 sequence (O60674 536-812 V617F/W659A/W777A/F794H): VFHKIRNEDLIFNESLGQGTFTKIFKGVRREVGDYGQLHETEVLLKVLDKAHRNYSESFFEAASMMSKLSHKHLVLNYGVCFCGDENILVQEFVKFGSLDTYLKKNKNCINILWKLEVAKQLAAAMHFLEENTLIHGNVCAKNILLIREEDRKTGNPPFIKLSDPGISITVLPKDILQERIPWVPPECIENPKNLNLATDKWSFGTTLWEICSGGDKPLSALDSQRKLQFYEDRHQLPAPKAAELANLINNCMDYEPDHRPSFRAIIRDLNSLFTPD

As for `[2H]C1(NC(=O)OC)CC[C@@H](n2c(=O)n(C([2H])([2H])[2H])c3cnc(Nc4ccc5c(n4)c(-c4cnn(C(F)(F)F)c4)nn5CC(C)(C)O)cc32)C1` (single isomer, unassigned) [Example 124], the results for the IC50 in assay [1] and in assay [2] were at most 10 nM and above 1000 nM, respectively.
Consider `[2H]C1(NC(=O)OC)CC[C@@H](n2c(=O)n(C([2H])([2H])[2H])c3cnc(Nc4ccc5c(n4)c(-c4cnn(C(F)(F)F)c4)nn5CC(C)(C)O)cc32)C1` (single isomer, unassigned) [Example 125], for which the IC50 in assay [1] was at most 10 nM; in assay [2] it was above 1000 nM.
`[2H]C([2H])([2H])n1c(=O)n([C@@H]2CC[C@@H](NC(=O)OC)C2)c2cc(Nc3ccc4c(n3)c(-c3cnn(C(F)(F)F)c3)cn4C3CCOCC3)ncc21` [Example 109, Methyl ((1R,3R)-3-(3-(methyl-d3)-2-oxo-6-((1-(tetrahydro-2H-pyran-4-yl)-3-(1-(trifluoromethyl)-1H-pyrazol-4-yl)-1H-pyrrolo[3,2-b]pyridin-5-yl)amino)-2,3-dihydro-1H-imidazo[4,5-c]pyridin-1-yl)cyclopentyl)carbamate]: the IC50 in assay [1] was at most 10 nM; in assay [2] it was above 1000 nM.
Regarding `[2H]C([2H])([2H])n1c(=O)n([C@@H]2CC[C@@H](NC(=O)OC)C2)c2cc(Nc3ccc4c(n3)c(-c3cnn(C(F)(F)F)c3)cn4CC(C)(C)O)ncc21` [Example 110, Methyl ((1R,3R)-3-(6-((1-(2-hydroxy-2-methylpropyl)-3-(1-(trifluoromethyl)-1H-pyrazol-4-yl)-1H-pyrrolo[3,2-b]pyridin-5-yl)amino)-3-(methyl-d3)-2-oxo-2,3-dihydro-1H-imidazo[4,5-c]pyridin-1-yl)cyclopentyl)carbamate], the values for the IC50 in assay [1] and in assay [2] were at most 10 nM and above 1000 nM, respectively.
Take `[2H]C1(NC(=O)OC)CC[C@@H](n2c(=O)n(C([2H])([2H])[2H])c3cnc(Nc4ccc5c(n4)c(-c4cnn(C(F)(F)F)c4)cn5C4CCOCC4)cc32)C1` (stereo partly drawn) [Example 111, Methyl ((3R)-3-(3-(methyl-d3)-2-oxo-6-((1-(tetrahydro-2H-pyran-4-yl)-3-(1-(trifluoromethyl)-1H-pyrazol-4-yl)-1H-pyrrolo[3,2-b]pyridin-5-yl)amino)-2,3-dihydro-1H-imidazo[4,5-c]pyridin-1-yl)cyclopentyl-1-d)carbamate]: the IC50 in assay [1] was at most 10 nM; in assay [2], above 1000 nM.
The matching figures for `[2H]C1(NC(=O)OC)CC[C@@H](n2c(=O)n(C([2H])([2H])[2H])c3cnc(Nc4ccc5c(n4)c(-c4cnn(C(F)(F)F)c4)cn5C4([2H])CCOCC4)cc32)C1` (stereo partly drawn) [Example 112, Methyl ((3R)-3-(3-(methyl-d3)-2-oxo-6-((1-(tetrahydro-2H-pyran-4-yl-4-d)-3-(1-(trifluoromethyl)-1H-pyrazol-4-yl)-1H-pyrrolo[3,2-b]pyridin-5-yl)amino)-2,3-dihydro-1H-imidazo[4,5-c]pyridin-1-yl)cyclopentyl-1-d)carbamate]: at most 10 nM and above 1000 nM.
Consider `[2H]C1(NC(=O)OC)CC[C@@H](n2c(=O)n(C([2H])([2H])[2H])c3cnc(Nc4ccc5c(n4)c(-c4cnn(C(F)(F)F)c4)cn5C4(C#N)CC4)cc32)C1` (stereo partly drawn) [Example 113, Methyl ((3R)-3-(6-((1-(1-cyanocyclopropyl)-3-(1-(trifluoromethyl)-1H-pyrazol-4-yl)-1H-pyrrolo[3,2-b]pyridin-5-yl)amino)-3-(methyl-d3)-2-oxo-2,3-dihydro-1H-imidazo[4,5-c]pyridin-1-yl)cyclopentyl-1-d)carbamate], for which the IC50 was at most 10 nM in assay [1] and above 1000 nM in assay [2].
As to `[2H]C([2H])([2H])n1c(=O)n([C@@H]2CC[C@](C)(NC(=O)C3CC3)C2)c2cc(Nc3ccc4nn([C@H]5C[C@@H](O)C5)c(-c5cnn(C(F)(F)F)c5)c4n3)ncc21` [Example 121, N-((1S,3R)-3-(6-((2-((1s,3s)-3-Hydroxycyclobutyl)-3-(1-(trifluoromethyl)-1H-pyrazol-4-yl)-2H-pyrazolo[4,3-b]pyridin-5-yl)amino)-3-(methyl-d3)-2-oxo-2,3-dihydro-1H-imidazo[4,5-c]pyridin-1-yl)-1-methylcyclopentyl)cyclopropanecarboxamide], the values for the IC50 in assay [1] and in assay [2] were at most 10 nM and above 1000 nM, respectively.
The matching figures for `[2H]C([2H])([2H])n1c(=O)n([C@@H]2CC[C@@H](NC(=O)OC)C2)c2cc(Nc3ccc4nn(CC(C)(C)O)c(-c5cnn(C(F)(F)F)c5)c4n3)ncc21` [Example 122, Methyl ((1R,3R)-3-(6-((2-(2-hydroxy-2-methylpropyl)-3-(1-(trifluoromethyl)-1H-pyrazol-4-yl)-2H-pyrazolo[4,3-b]pyridin-5-yl)amino)-3-(methyl-d3)-2-oxo-2,3-dihydro-1H-imidazo[4,5-c]pyridin-1-yl)cyclopentyl)carbamate]: at most 10 nM and above 1000 nM.
`[2H]C([2H])([2H])n1c(=O)n([C@@H]2CC[C@](C)(NC(=O)C3CC3)C2)c2cc(Nc3ccc4nn(CC(C)(C)O)c(-c5cnn(C(F)(F)F)c5)c4n3)ncc21` [Example 123, N-((1S,3R)-3-(6-((2-(2-Hydroxy-2-methylpropyl)-3-(1-(trifluoromethyl)-1H-pyrazol-4-yl)-2H-pyrazolo[4,3-b]pyridin-5-yl)amino)-3-(methyl-d3)-2-oxo-2,3-dihydro-1H-imidazo[4,5-c]pyridin-1-yl)-1-methylcyclopentyl)cyclopropanecarboxamide]: the IC50 was at most 10 nM in assay [1] and above 1000 nM in assay [2].
For the molecule `[2H]C([2H])([2H])n1c(=O)n([C@H]2CC[C@@](C)(NC(=O)C3CC3)CC2)c2cc(Nc3ccc4c(n3)c(-c3cnn(C(F)(F)F)c3)nn4[C@H]3CC[C@H](O)CC3)ncc21` [Example 126, N-((1s,4s)-4-(6-((1-((1r,4r)-4-Hydroxycyclohexyl)-3-(1-(trifluoromethyl)-1H-pyrazol-4-yl)-1H-pyrazolo[4,3-b]pyridin-5-yl)amino)-3-(methyl-d3)-2-oxo-2,3-dihydro-1H-imidazo[4,5-c]pyridin-1-yl)-1-methylcyclohexyl)cyclopropanecarboxamide], the IC50 was at most 10 nM in assay [1] and above 1000 nM in assay [2].
With `[2H]C([2H])([2H])n1c(=O)n([C@H]2CC[C@@](C)(NC(=O)C3CC3)CC2)c2cc(Nc3cc(C(=O)N4CCOCC4)c4nn(C)c(-c5cnn(C(F)(F)F)c5)c4n3)ncc21` [Example 127, N-((1s,4s)-1-Methyl-4-(3-(methyl-d3)-6-((2-methyl-7-(morpholine-4-carbonyl)-3-(1-(trifluoromethyl)-1H-pyrazol-4-yl)-2H-pyrazolo[4,3-b]pyridin-5-yl)amino)-2-oxo-2,3-dihydro-1H-imidazo[4,5-c]pyridin-1-yl)cyclohexyl)cyclopropanecarboxamide], the values for the IC50 in assay [1] and in assay [2] were at most 10 nM and above 1000 nM, respectively.
As for `[2H]C([2H])([2H])n1c(=O)n([C@@H]2CC[C@](C)(NC(=O)OC)C2)c2cc(Nc3ccc4c(n3)c(-c3cnn(C(F)(F)F)c3)nn4CC(C)(C)O)ncc21` [Example 128, Methyl ((1S,3R)-3-(6-((1-(2-hydroxy-2-methylpropyl)-3-(1-(trifluoromethyl)-1H-pyrazol-4-yl)-1H-pyrazolo[4,3-b]pyridin-5-yl)amino)-3-(methyl-d3)-2-oxo-2,3-dihydro-1H-imidazo[4,5-c]pyridin-1-yl)-1-methylcyclopentyl)carbamate], the values for the IC50 in assay [1] and in assay [2] were at most 10 nM and above 1000 nM, respectively.
For the molecule `[2H]C([2H])([2H])n1c(=O)n([C@@H]2CC[C@](C)(NC(C)=O)C2)c2cc(Nc3ccc4c(n3)c(-c3cnn(C(F)(F)F)c3)nn4CC(C)(C)O)ncc21` [Example 129, N-((1S,3R)-3-(6-((1-(2-Hydroxy-2-methylpropyl)-3-(1-(trifluoromethyl)-1H-pyrazol-4-yl)-1H-pyrazolo[4,3-b]pyridin-5-yl)amino)-3-(methyl-d3)-2-oxo-2,3-dihydro-1H-imidazo[4,5-c]pyridin-1-yl)-1-methylcyclopentyl)acetamide], the values for the IC50 in assay [1] and in assay [2] were at most 10 nM and above 1000 nM, respectively.
Regarding `[2H]C1(NC(=O)OC)CC[C@@H](n2c(=O)n(C([2H])([2H])[2H])c3cnc(Nc4cc(C(C)(C)O)c5[nH]cc(-c6cnn(C(F)(F)F)c6)c5n4)cc32)C1` (stereo partly drawn) [Example 130, Methyl ((3R)-3-(6-((7-(2-hydroxypropan-2-yl)-3-(1-(trifluoromethyl)-1H-pyrazol-4-yl)-1H-pyrrolo[3,2-b]pyridin-5-yl)amino)-3-(methyl-d3)-2-oxo-2,3-dihydro-1H-imidazo[4,5-c]pyridin-1-yl)cyclopentyl-1-d)carbamate], the IC50 in assay [1] was at most 10 nM; in assay [2] it was above 1000 nM.
